Measured values from US20060142247A1, “Tricyclic heterocycles” (priority 2004, published 2006).

What follows are compounds tested on HCT 116 cells (assay: Viability assay HCT 116 cells (CellTiter-Glo)). Conditions: Homo sapiens, HCT-116, 120 h, HCT 116 human colon carcinoma cells, 5 days incubation, CellTiter-Glo luminescence.
Assay type: cell-based
Description: Viability Assay—HCT 116 Cells
A viability assay was performed using the CellTiter-Glo® Luminescent Cell Viability Assay (see Promega Corporation's Technical Bulletin No. 288, pp. 1-11 [revised 2/04] which is hereby incorporated by reference in its entirety). This assay is a homogeneous method of determining the number of viable cells in culture based on quantitation of the ATP present, an indicator of metabolically active cells. The assay is designed for use with multiwell formats, making it ideal for automated high-throughput screening (HTS), cell proliferation and cytotoxicity assays. The homogeneous assay procedure involves adding a single reagent (containing luciferase, luciferan substrate, and buffer) directly to cells cultured in serum-supplemented medium. Cell washing, removal of medium and multiple pipetting steps are not required. The system detects as few as 15 cells/well in a 384-well format in 10 minutes after adding reagent and mixing.
The homogeneous “add-mix-measure” format results in cell lysis and generation of a luminescent signal proportional to the amount of ATP present. The amount of ATP is directly proportional to the number of cells present in culture. The above-referenced assay generates a “glow-type” luminescent signal, produced by the luciferase reaction, which has a half-life generally greater than five hours, depending on cell type and medium used. The extended half-life eliminates the need to use reagent injectors and provides flexibility for continuous or batch mode processing of multiple plates. The unique homogeneous format avoids errors that may be introduced by other ATP measurement methods that require multiple steps.
HCT 116 cells (human colon carcinoma, ATCC-No. CCl-247) were cultivated in RPMI 1640 medium with GlutaMAX™ I (cell culture media that contains L-Alanyl-L-Glutamine [a stabilized a form/source of L-Glutamine] from Invitrogen, Cat-No. 61870-010), 2.5% Fetal Calf Serum (FCS, Sigma Cat-No. F4135 (FBS)); 100 Units/ml penicillin/100 μg/ml streptomycin (=Pen/Strep from Invitrogen Cat. No. 15140). For the assay the cells were seeded in 384 well plates, 1000 cells per well, in the same medium. The next day the test compounds were added in various concentrations ranging from 30 μM to 0.0015 μM (10 concentrations, 1:3 diluted). After 5 days the viability assay was done according to the instructions of the manufacturer. In brief: the cell-plate was equilibrated to room temperature for approximately 30 minutes and than the reagent (containing luciferase, luciferan substrate, and buffer) was added. The contents were carefully mixed for 15 minutes to induce cell lysis. After 45 minutes the luminescent signal was measured in Victor 2, (scanning multiwell spectrophotometer, Wallac).
Medium: RPMI 1640 with cell culture media containing L-Alanyl-L-Glutamine [GlutaMAX™ I (Invitrogen, Cat-Nr. 61870)], 5% FCS (Sigma Cat.-No. F4135), Pen/Strep (Invitrogen, Cat No. 15140). • HCT116 (ATCC-No. CCl-247): 1000 cells in 60 μl per well of 384 well plate (Greiner 781098, μClear-plate white) • After seeding incubate plates 24 h at 37° C., 5% CO2 2nd. Day: Induction (Treatment with Compounds, 10 Concentrations):
In order to achieve a final concentration of 30 μM as highest concentration […] of 10 mM compound stock solution were added directly to 163 μl media. Then step e) of the dilution procedure described below, was followed.

Row | SMILES | IC50 [nM]
1 | CC1(C)C(=O)N(CCNC(=O)C2CC2)c2cc3[nH]c(-c4n[nH]c5ccccc45)nc3cc21 [Example 56, Cyclopropanecarboxylic acid {2-[2-(1H-indazol-3-yl)-7,7-dimethyl-6-oxo-6,7-dihydro-3H-imidazo[4,5-f]indol-5-yl]-ethyl}-amide] | 100 to 1000
2 | CC1(C)C(=O)N(CCNC(=O)N2CCCC2)c2cc3[nH]c(-c4n[nH]c5ccccc45)nc3cc21 [Example 58, Pyrrolidine-1-carboxylic acid {2-[2-(1H-indazol-3-yl)-7,7-dimethyl-6-oxo-6,7-dihydro-3H-imidazo[4,5-f]indol-5-yl]-ethyl}-amide] | 100 to 1000
3 | CN1CCN(C(=O)NCCN2C(=O)C(C)(C)c3cc4nc(-c5n[nH]c6ccccc56)[nH]c4cc32)CC1 [Example 59, 4-Methyl-piperazine-1-carboxylic acid {2-[2-(1H-indazol-3-yl)-7,7-dimethyl-6-oxo-6,7-dihydro-3H-imidazo[4,5-f]indol-5-yl]-ethyl}-amide] | 1000 to 10000
4 | CC1(C)C(=O)N(CCNS(C)(=O)=O)c2cc3[nH]c(-c4n[nH]c5ccccc45)nc3cc21 [Example 61, N-{2-[2-(1H-Indazol-3-yl)-7,7-dimethyl-6-oxo-6,7-dihydro-3H-imidazo[4,5-f]indol-5-yl]-ethyl}-methanesulfonamide] | 100 to 1000
5 | C[S+]([O-])CCN1C(=O)C(C)(C)c2cc3nc(-c4n[nH]c5ccccc45)[nH]c3cc21 (centres unmarked) [Example 64, 2-(1H-Indazol-3-yl)-5-(2-methanesulfinyl-ethyl)-7,7-dimethyl-5,7-dihydro-3H-imidazo[4,5-f]indol-6-one] | 1000 to 10000
6 | CC1(C)C(=O)N(CCS(C)(=O)=O)c2cc3[nH]c(-c4n[nH]c5ccccc45)nc3cc21 [Example 65, 2-(1H-Indazol-3-yl)-5-(2-methanesulfonyl-ethyl)-7,7-dimethyl-5,7-dihydro-3H-imidazo[4,5-f]indol-6-one] | 100 to 1000
7 | CCN1C(=O)C(C)(C)c2cc3nc(-c4n[nH]c5ccc(F)cc45)[nH]c3cc21 [Example 66, 5-Ethyl-2-(5-fluoro-1H-indazol-3-yl)-7,7-dimethyl-5,7-dihydro-3H-imidazo[4,5-f]indol-6-one] | 100 to 1000
8 | CCN1C(=O)C(C)(C)c2cc3nc(-c4n[nH]c5ccc(C(=O)O)cc45)[nH]c3cc21 [Example 69, 3-(5-Ethyl-7,7-dimethyl-6-oxo-3,5,6,7-tetrahydro-imidazo[4,5-f]indol-2-yl)-1H-indazole-5-carboxylic acid] | 100 to 1000
9 | CCN1C(=O)C(C)(C)c2cc3nc(-c4n[nH]c5cc(Br)ccc45)[nH]c3cc21 [Example 70, 2-(6-Bromo-1H-indazol-3-yl)-5-ethyl-7,7-dimethyl-5,7-dihydro-3H-imidazo[4,5-f]indol-6-one] | 100 to 1000
10 | CCN1C(=O)C(C)(C)c2cc3nc(-c4n[nH]c5ccc(C#N)cc45)[nH]c3cc21 [Example 72, 3-(5-Ethyl-7,7-dimethyl-6-oxo-3,5,6,7-tetrahydro-imidazo[4,5-f]indol-2-yl)-1H-indazole-5-carbonitrile] | 100 to 1000
11 | CC1(C)C(=O)Nc2cc3[nH]c(-c4n[nH]c5ccc(C(=O)NCc6ccccc6)cc45)nc3cc21 [Example 77, 3-(7,7-Dimethyl-6-oxo-3,5,6,7-tetrahydro-imidazo[4,5-f]indol-2-yl)-1H-indazole-5-carboxylic acid benzylamide] | 100 to 1000
12 | CCN1C(=O)C(C)(C)c2cc3nc(-c4n[nH]c5ccc(C(=O)NCc6ccccc6)cc45)[nH]c3cc21 [Example 79, 3-(5-Ethyl-7,7-dimethyl-6-oxo-3,5,6,7-tetrahydro-imidazo[4,5-f]indol-2-yl)-1H-indazole-5-carboxylic acid benzylamide] | 100 to 1000
13 | CCN1C(=O)C(C)(C)c2cc3nc(-c4n[nH]c5ccc(C(=O)NCc6cccnc6)cc45)[nH]c3cc21 [Example 81, 3-(5-Ethyl-7,7-dimethyl-6-oxo-3,5,6,7-tetrahydro-imidazo[4,5-f]indol-2-yl)-1H-indazole-5-carboxylic acid (pyridin-3-ylmethyl)-amide; compound with acetic acid] | 100 to 1000
14 | CCN1C(=O)C(C)(C)c2cc3nc(-c4n[nH]c5ccc(C(=O)NCc6ccncc6)cc45)[nH]c3cc21 [Example 82, 3-(5-Ethyl-7,7-dimethyl-6-oxo-3,5,6,7-tetrahydro-imidazo[4,5-f]indol-2-yl)-1H-indazole-5-carboxylic acid (pyridin-4-ylmethyl)-amide; compound with acetic acid] | 1000 to 10000

Next, values leading:

Row | IC50 [nM] | SMILES
15 | 100 to 1000 | CC1(C)C(=O)N(CC2CC2)c2cc3[nH]c(-c4n[nH]c5ccccc45)nc3cc21 [Example 1, 5-Cyclopropylmethyl-2-(1H-indazol-3-yl)-7,7-dimethyl-5,7-dihydro-3H-imidazo[4,5-f]indol-6-one]
16 | 100 to 1000 | CN1C(=O)C(C)(C)c2cc3nc(-c4n[nH]c5ccccc45)[nH]c3cc21 [Example 4, 2-(1H-indazol-3-yl)-5,7,7-trimethyl-5,7-dihydro-3H-imidazo[4,5-f]indol-6-one]
17 | 640 | CCN1C(=O)CC(C)(C)c2cc3nc(-c4n[nH]c5ccccc45)[nH]c3cc21 [Example 14, 5-Ethyl-2-(1H-indazol-3-yl)-8,8-dimethyl-3,5,7,8-tetrahydro-imidazo[4,5-g]quinolin-6-one]
18 | 100 to 1000 | CCN(CC)CCN1C(=O)C(C)(C)c2cc3nc(-c4n[nH]c5ccccc45)[nH]c3cc21 [Example 22, 5-(2-Diethylamino-ethyl)-2-(1H-indazol-3-yl)-7,7-dimethyl-5,7-dihydro-3H-imidazo[4,5-f]indol-6-one]
19 | 100 to 1000 | CSCCN1C(=O)C(C)(C)c2cc3nc(-c4n[nH]c5ccccc45)[nH]c3cc21 [Example 25, 2-(1H-Indazol-3-yl)-7,7-dimethyl-5-(2-methylsulfanyl-ethyl)-5,7-dihydro-3H-imidazo[4,5-f]indol-6-one]
20 | 240 | CC1(C)C(=O)N(Cc2nccs2)c2cc3[nH]c(-c4n[nH]c5ccccc45)nc3cc21 [Example 32, 2-(1H-Indazol-3-yl)-7,7-dimethyl-5-thiazol-2-ylmethyl-5,7-dihydro-3H-imidazo[4,5-f]indol-6-one]
21 | 100 to 1000 | CC1(C)C(=O)N(CC(=O)NCc2cccnc2)c2cc3[nH]c(-c4n[nH]c5ccccc45)nc3cc21 [Example 41, 2-[2-(1H-Indazol-3-yl)-7,7-dimethyl-6-oxo-6,7-dihydro-3H-imidazo[4,5-f]indol-5-yl]-N-pyridin-3-ylmethyl-acetamide]
22 | 100 to 1000 | CC1(C)C(=O)N(CC(=O)NCc2ccc(F)cc2)c2cc3[nH]c(-c4n[nH]c5ccccc45)nc3cc21 [Example 46, N-(4-Fluoro-benzyl)-2-[2-(1H-indazol-3-yl)-7,7-dimethyl-6-oxo-6,7-dihydro-3H-imidazo[4,5-f]indol-5-yl]-acetamide]
23 | 100 to 1000 | COc1cc(CNC(=O)CN2C(=O)C(C)(C)c3cc4nc(-c5n[nH]c6ccccc56)[nH]c4cc32)cc(OC)c1 [Example 47, N-(3,5-Dimethoxy-benzyl)-2-[2-(1H-indazol-3-yl)-7,7-dimethyl-6-oxo-6,7-dihydro-3H-imidazo[4,5-f]indol-5-yl]-acetamide]
24 | 100 to 1000 | CC1(C)C(=O)N(CC(=O)NOCc2ccccc2)c2cc3[nH]c(-c4n[nH]c5ccccc45)nc3cc21 [Example 50, N-Benzyloxy-2-[2-(1H-indazol-3-yl)-7,7-dimethyl-6-oxo-6,7-dihydro-3H-imidazo[4,5-f]indol-5-yl]-acetamide]
25 | 100 to 1000 | CONC(=O)CN1C(=O)C(C)(C)c2cc3nc(-c4n[nH]c5ccccc45)[nH]c3cc21 [Example 51, 2-[2-(1H-Indazol-3-yl)-7,7-dimethyl-6-oxo-6,7-dihydro-3H-imidazo[4,5-f]indol-5-yl]-N-methoxy-acetamide]
26 | 100 to 1000 | CC1(C)C(=O)N(CCNC(=O)c2cccnc2)c2cc3[nH]c(-c4n[nH]c5ccccc45)nc3cc21 [Example 55, N-{2-[2-(1H-Indazol-3-yl)-7,7-dimethyl-6-oxo-6,7-dihydro-3H-imidazo[4,5-f]indol-5-yl]-ethyl}-nicotinamide]
